According to US6518261B2, “Use of eugenol in combination with other chemopreventative agents as prophylaxis for cancers” (Oncology Sciences Corporation, priority 2000, dated 2003):

How the values were obtained:
suspect cells = assay: Cell cycle analysis; type: cell-based; conditions: cell cycle analysis data
From the text: Therefore induction of cell death pathway by 2-ME and growth inhibition by eugenol through a different pathway presents a tremendous new weapon for use in preventing and combating cancer.

LNCaP cells = assay: Cell growth by trypan blue exclusion cell counting, confirmed by cell proliferation assay kit; type: cell-based, human; conditions: 72 hours of treatment, FIG. 2
Procedure: These cells were treated with different concentrations of eugenol (0.5, 1, 3, 5 and 10 mM). Cell growth was monitored every 24 hours by counting the increase in the cell number using trypan blue exclusion assay.
Cells were treated with either eugenol (0.25, 0.5, 0.75 or 1 mM) or 2-ME (0.5, 1, 2 or 3 mM) or both (0.25, 0.5, 0.75 or 1 mM of eugenol along with 0.5 mM of 2-ME). Cell growth was measured following 72 hours of treatment as described above.

SMILES | effect on cell cycle profile / mechanism of growth inhibition (suspect cells) | inhibition of growth of LNCaP cells (LNCaP cells; 0.5 mM of 2-ME) | inhibition of growth of LNCaP cells (LNCaP cells; 0.25 mM of eugenol)
COc1cc2c(cc1O)CC[C@@H]1[C@@H]2CC[C@]2(C)[C@@H](O)CC[C@@H]12 [2-ME, 2-methoxyestradiol] | inducing apoptosis and blocking cells in G2/M phase | about 20% | 
C=CCc1ccc(O)c(OC)c1 [eugenol] | without any significant alterations in the cells cycle profile |  | about 30%
